Test results from patent US5300524A, “Spirocyclic PAF antagonists” (British Bio-Technology Limited, priority 1991, dated 1994).

Tests used:
[1] = target: T1, PAF receptor (^3 H-PAF binding to human platelet plasma membrane) (Homo sapiens, UniProt P25105); assay: Inhibition of ^3H-PAF binding to human platelet plasma membrane (isotopic labelling and filtration); conditions: human platelet membranes, 0.5 nM ^3H-PAF, 1 hour, 0° C.
T1 construct: from tissue; host or cells: human platelets (concentrates from a hospital blood bank), lysed by freeze-thaw, membrane fraction
T1 sequence (P25105 whole entry): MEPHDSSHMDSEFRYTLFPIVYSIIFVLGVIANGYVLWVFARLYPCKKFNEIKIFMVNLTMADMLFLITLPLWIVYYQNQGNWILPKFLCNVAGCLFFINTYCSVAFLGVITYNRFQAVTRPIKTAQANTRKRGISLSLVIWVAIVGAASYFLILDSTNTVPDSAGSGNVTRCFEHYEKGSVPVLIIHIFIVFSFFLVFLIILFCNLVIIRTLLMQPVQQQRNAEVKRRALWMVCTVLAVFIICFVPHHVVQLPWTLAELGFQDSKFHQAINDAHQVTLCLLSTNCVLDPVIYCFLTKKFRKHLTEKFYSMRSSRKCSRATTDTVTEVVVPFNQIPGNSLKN

[2] = system: PAF-induced hypotension in rats; assay: Reversal of PAF-induced hypotension in the rat; type: in vivo; conditions: iv, anaesthetised male Sprague-Dawley rats, PAF 100 ng.kg^-1 min^-1 i.v. infusion, compound i.v. bolus, read-out: ED50, dose to cause a 50% reversal of the hypotensive PAF response
Protocol: Compounds of general formula I inhibit PAF-induced functions in both the cellular and tissue levels by changing the PAF binding to its specific receptor site. The ability of compounds of general formula I to inhibit the binding of PAF to its specific receptor binding site on human platelet plasma membranes was measured according to Pharmacological Example 1. The ability of compounds of general formula I to reverse the hypotension caused by an infusion of PAF in rats was measured according to Pharmacology Example 2. […] Male Sprague-Dawley rats (300-350 gms) were anaesthetised with a mixture of sodium pentobarbitone, 22.5 mg.kg^-1 and thiopental 62.5 mg.kg^-1. Through a midline incision in the neck, the trachea was cannulated and the animals breathed spontaneously. A carotid artery was cannulated for the measurement of blood pressure and this signal was used to trigger a rate meter to measure heart rate. Both jugular veins were cannulated: one for the infusion of PAF and the other for the bolus administration of test compounds.

Row | SMILES | IC50 [1] [µM] | ED50 [2] [mg/kg]
1 | COc1ccc(C2CCC3(O2)C(=O)CCC3c2ccc(OC)c(OC)c2)cc1OC (single isomer, unassigned) [Example 1A, 1-oxa-6-oxo-2,9-(3,4-dimethoxyphenyl)spiro[4,4]nonane] | 12 | –
2 | COc1ccc(C2CCC3(O2)C(=O)C(=Cc2cccnc2)CC3c2ccc(OC)c(OC)c2)cc1OC (stereo not drawn) [Example 2, 1-Oxa-6-oxo-7-(3-pyridyl)methylene-2,9-di(3,4-dimethoxyphenyl)spiro[4,4]nonane] | 3 | 0.8
3 | COc1ccc(C2CCC3(O2)C(=O)C(=Cc2cccc(Cl)c2)CC3c2ccc(OC)c(OC)c2)cc1OC (stereo not drawn) [Example 5, 1-Oxa-6-oxo-7-(3-chlorophenyl)methylene-2,9-di(3,4-dimethoxyphenyl)spiro[4,4]nonane] | 5 | –
4 | COc1ccc(C2CCC3(O2)C(=O)C(=CCCc2cccnc2)CC3c2ccc(OC)c(OC)c2)cc1OC (stereo not drawn) [Example 10, 1-Oxa-6-oxo-7-(3-pyridylethyl)methylene-2,9-di(3,4-dimethoxyphenyl)spiro[4,4]nonane] | 1.5 | –
5 | COc1ccc(C2CCC3(O2)C(=O)C(=CCCCCc2cccnc2)CC3c2ccc(OC)c(OC)c2)cc1OC (stereo not drawn) [Example 11, 1-Oxa-6-oxo-7-(3-pyridylbutyl)methylene-2,9-di(3,4-dimethoxyphenyl)spiro[4,4]nonane] | 1 | –
6 | COc1ccc(C2CCC3(O2)C(=CC#N)CCC3c2ccc(OC)c(OC)c2)cc1OC (stereo not drawn) [Example 17, 1-Oxa-6-cyanomethylene-2,9-di(3,4-dimethoxyphenyl)spiro[4,4]nonane] | 1.5 | –
7 | COc1ccc(C2CCC3(O2)C(=O)CCC3c2ccc(OC)cc2)cc1 (stereo not drawn) [Example 18, 1-Oxa-6-oxo-2,9-di(4-methoxyphenyl)spiro[4,4]nonane] | 5 | –
8 | COc1ccc(C2CCC3(O2)C(=O)C(=Cc2cccnc2)CC3c2ccc(OC)cc2)cc1 (stereo not drawn) [Example 19, 1-Oxa-6-oxo-7-(3-pyridyl)methylene-2,9-di(4-methoxyphenyl)spiro[4,4]nonane] | 9 | –
